Patent US5681800A, “Biodegradable branched synthetic ester base stocks and lubricants formed therefrom” (priority 1995, dated 1997)

Assays:
[1] = Brookfield Viscosity at -25° C. (ASTM D-2983); type: physicochemical
Protocol: (§1) The properties listed in Tables 1 and 2 were determined as follows. Pour Point was determined using ASTM # D-97. Brookfield Viscosity at -25° C. was determined using ASTM # D-2983. Kinematic viscosity (@ 40 and 100° C.) was determined using ASTM # D-445. Viscosity index (VI) was determined using ASTM # D-2270. Biodegradation was determined using the Modified Sturm test (OECD Test No. 301B). Solubility with dispersant was determined by blending the desired ratios and looking for haze, cloudiness, two-phases, etc. Engine wear was determined using the NMMA Yamaha CE50S Lubricity test. Oxidation induction time was determined using a high pressure differential scanning calorimeter (HPDSC) having isothermal/isobaric conditions of 220° C. and 500 psi (3.445 MPa) air, respectively. Aquatic toxicity was determined using the Dispersion Aquatic Toxicity test. The acid number was determined using ASTM # D-664. The hydroxyl number of the respective samples was determined by infrared spectroscopy.

[2] = Kinematic viscosity (ASTM D-445); type: physicochemical
Protocol: as §1

[3] = Pour Point (ASTM D-97); type: physicochemical
Protocol: as §1

[4] = Viscosity index (ASTM D-2270); type: physicochemical
Protocol: as §1

[5] = Oxidation induction time by HPDSC; type: physicochemical; settings: 220° C., 500 psi air
Protocol: *Oxidation Induction Time is the amount of time (in minutes) for a
molecule to oxidatively decompose under a particular set of conditions
using a high pressure differential scanning calorimeter (HPDSC).
The conditions used to evaluate these molecules were: 220° C.

[6] = Acid number (ASTM D-664); type: physicochemical
Protocol: as §1

[7] = background; cited from earlier work

CCCCCCCCCCCOC(=O)CCCCC(=O)OCCCCCCCCCCC [Di-undecyladipate]
Vis @ -25° C. [1]: solid | Vis. @ 40° C. [2]: 13.92 cSt | Vis. @ 100° C. [2]: 2.80 cSt | Pour Point [3]: +21 °C

triester of trimethylolpropane and isostearic acid [TMP/iC18]
Viscosity Index [4]: 147 | Oxidation Induction Time [5]: 4.29 min | Acid Number [6]: 1.9 mgKOH/g | -25° C. Viscosity ([1]; Tables 2 and 4): 358,000 cps | Vis. @ 40° C. [2]: 78.34 cSt | Vis. @ 100° C. [2]: 11.94 cSt | Pour Point [3]: -20 °C

CCCCCCCCCC(=O)OCC(COC(=O)CCCCCCCCC)(COC(=O)CCCCCCCCC)COC(=O)CCCCCCCCC [ester of pentaerythritol and n-C10 acid]
viscosity at 40° C. [7]: about 38.6 cSt
